Measurements published in the NIST ThermoML archive (doi:10.1021/je049878m).
Numbers after ± are expanded uncertainties.

Details: Crystal

| SMILES | Normal melting temperature [°C] |
| --- | --- |
| CC(=O)Nc1ccc(C)cc1 [1-acetamido-4-methylbenzene] | 151 ± 1 |
| COc1cc(OC)c(C(=O)O)cc1OC [2,4,5-trimethoxybenzoic acid] | 144.8 ± 1 |
| Nc1ccccc1O [2-hydroxybenzenamine] | 174.5 ± 1 |
| COc1cc(C(=O)O)cc(OC)c1OC [3,4,5-trimethoxybenzoic acid] | 171.4 ± 1 |
| Nc1cccc(O)c1 [3-hydroxybenzenamine] | 123.7 ± 1 |
| CC(=O)Nc1ccccc1C [o-acetotoluide] | 109.6 ± 1 |
